Laboratory results from publication PMC6097184 (Clinical cancer research : an official journal of the …, 2017).

Columns and labels:
[1] = biological target: T1, human OATP2B1 (Homo sapiens, UniProt O94956); experiment: cellular uptake in HEK293 cells overexpressing OATP2B1; conditions: 10 μmol/L fluvastatin A
T1 sequence (O94956 1-709): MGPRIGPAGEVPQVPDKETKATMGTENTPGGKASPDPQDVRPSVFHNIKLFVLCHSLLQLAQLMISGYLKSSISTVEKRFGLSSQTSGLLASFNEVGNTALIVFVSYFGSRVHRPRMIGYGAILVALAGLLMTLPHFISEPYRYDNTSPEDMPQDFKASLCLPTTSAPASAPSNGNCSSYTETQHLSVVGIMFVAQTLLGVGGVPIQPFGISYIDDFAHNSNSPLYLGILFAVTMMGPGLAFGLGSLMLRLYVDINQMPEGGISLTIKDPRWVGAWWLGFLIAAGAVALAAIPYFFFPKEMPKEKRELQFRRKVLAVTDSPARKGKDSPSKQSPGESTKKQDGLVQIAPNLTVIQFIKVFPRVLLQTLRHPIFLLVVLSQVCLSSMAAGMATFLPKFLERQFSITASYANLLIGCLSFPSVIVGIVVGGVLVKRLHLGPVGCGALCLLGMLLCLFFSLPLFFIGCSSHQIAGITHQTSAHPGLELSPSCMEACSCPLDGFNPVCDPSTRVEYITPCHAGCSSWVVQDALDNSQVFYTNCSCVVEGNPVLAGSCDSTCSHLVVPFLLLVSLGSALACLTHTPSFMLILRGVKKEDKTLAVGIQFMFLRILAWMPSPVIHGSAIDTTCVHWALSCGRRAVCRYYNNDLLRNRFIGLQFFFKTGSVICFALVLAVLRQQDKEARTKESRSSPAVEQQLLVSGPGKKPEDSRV

[2] = biological target: T2, human OAT3 (Homo sapiens, UniProt Q8TCC7); experiment: cellular uptake in HEK293 cells overexpressing OAT3
T2 sequence (Q8TCC7 1-542): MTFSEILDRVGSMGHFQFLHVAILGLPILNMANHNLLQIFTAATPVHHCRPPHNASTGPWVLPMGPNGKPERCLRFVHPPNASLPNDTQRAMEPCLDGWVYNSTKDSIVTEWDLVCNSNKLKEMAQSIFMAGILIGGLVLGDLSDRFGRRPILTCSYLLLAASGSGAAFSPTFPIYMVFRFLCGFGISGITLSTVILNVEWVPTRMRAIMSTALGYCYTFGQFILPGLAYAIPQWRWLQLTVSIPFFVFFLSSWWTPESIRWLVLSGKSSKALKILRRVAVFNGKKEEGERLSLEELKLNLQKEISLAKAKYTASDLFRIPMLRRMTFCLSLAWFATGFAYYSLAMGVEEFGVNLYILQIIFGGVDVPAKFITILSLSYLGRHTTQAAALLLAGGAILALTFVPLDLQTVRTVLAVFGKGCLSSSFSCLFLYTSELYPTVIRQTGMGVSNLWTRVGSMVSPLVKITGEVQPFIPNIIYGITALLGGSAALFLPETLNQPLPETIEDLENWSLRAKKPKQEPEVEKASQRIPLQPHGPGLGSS

[3] = physicochemical parameters from literature; conditions: high permeability and low solubility
[4] = fraction unbound in plasma; type: in vitro ADME; conditions: human, patient plasma, fu,p, mean ± SD, plasma of 20 patients with glioblastoma
[5] = biological target: Wee1 tyrosine kinase; conditions: ref https://ncats.nih.gov/files/AZD1775.pdf; cited from earlier work
[6] = type: in vivo; conditions: human, po, 400 mg, range, 20 patients with glioblastoma, single oral dose 100, 200 or 400 mg
[7] = system: DNA damage and G2-checkpoint escape; conditions: ref https://ncats.nih.gov/files/AZD1775.pdf; cited from earlier work

## C[C@]12CC[C@@H]3c4ccc(OS(=O)(=O)O)cc4CC[C@H]3[C@@H]1CCC2=O [estrone-3-sulfate]
[1]
  cellular uptake in OATP2B1 cells in presence of inhibitor: reduced estrone-3-sulfate uptake to a level similar to that in the vector control
[2]; 50 μmol/L probenecid
  cellular uptake in OAT3 cells in presence of inhibitor: reduced estrone-3-sulfate uptake to a level similar to that in the vector control
[2]; no inhibitor
  cellular uptake in HEK293 cells overexpressing OAT3 compared with vector control: significantly higher

## C=CCn1c(=O)c2cnc(Nc3ccc(N4CCN(C)CC4)cc3)nc2n1-c1cccc(C(C)(C)O)n1 [AZD1775]
[3]
  Biopharmaceutics Classification System (BCS) class: class II
[4]
  fraction unbound: 0.182 ± 0.024
[5]
  enzyme IC50 for inhibiting Wee1 activity: 0.0026 mg/L
[6]; tumor / plasma (total), total tumor-to-plasma concentration ratio (Kp)
  Kp: 3.8 to 40.4
[6]; tumor / plasma (unbound), unbound tumor-to-plasma concentration ratio (Kp,uu)
  Kp uu: 1.3 to 24.4
[7]
  IC50 for inducing DNA damage and G2-checkpoint escape in cell-based assays: ~0.04 mg/L
